Experimental data reported in patent US8093394B2, “Derivatives of 5-thioxylopyranose and use of same for treatment” (Laboratoires Fournier S.A., priority 2006, dated 2012).

Test system: venous thrombosis
Experiment: venous thrombosis test in rats, activity via the oral route (venous stasis under hypercoagulation with factor Xa, Wessler technique)
Type: in vivo
Conditions: dose 6 mg/kg, thrombosis induced 2 h after administration, male Wistar rats
Protocol: The antithrombotic activity of the compounds according to the invention was studied in vivo in rats by virtue of a test in which a venous thrombosis is reproduced. The venous thrombosis was induced according to the protocol described in Thromb. Haemost., 1992, 67(1), 176-179. The activity via the oral route was studied according to the procedure described below. The experiment is carried out on non-fasting male Wistar rats weighing from 250 to 280 g and divided into groups of 10 animals each. The test products are administered orally (intubation) in solution or in suspension in a 0.5% solution of methylcellulose in water. The concentrations of the compounds are calculated so as to bring about the absorption of an amount of solution of 10 ml/kg orally. A thrombosis is induced at a time T after the administration of the product and the thrombus formed is removed and weighed. In order to induce this thrombosis, a venous stasis is brought about under hypercoagulation, according to the technique described by Wessler (J. Applied Physiol., 1959, 943-946), using a solution of activated factor X (Xa), supplied by Biogenic (Montpellier) and comprising a dose of 7.5 nKat/kg, as hypercoagulant. The venous stasis is brought about 10 seconds exactly after the injection of the hypercoagulant. The activity of the test compounds is monitored at various doses, after they have been administered. The thrombosis is induced 2 hours after the administration of the compound. By way of example, the results of the above tests are given in the following table for a few compounds according to the invention (the activity is expressed by the percentage of inhibition of the formation of the thrombus, observed in the presence of the compound according to the invention, with respect to the weight of the thrombus formed in the absence of the compound).

Structure (SMILES)	Activity (percentage of inhibition of the formation of the thrombus, with respect to the weight of the thrombus formed in the absence of the compound) [%]
O[C@@H]1[C@@H](O)[C@H](Oc2ccc(-c3ccncc3)nc2F)SC[C@H]1O [Example 22, 2-Fluoro-6-(4-pyridinyl)-3-pyridinyl 5-thio-β-D-xylopyranoside]	100
O[C@@H]1[C@@H](O)[C@H](Oc2ccc(-c3ccncc3)nc2Cl)SC[C@H]1O [Example 24, 2-Chloro-6-(4-pyridinyl)-3-pyridinyl 5-thio-β-D-xylopyranoside]	96
O[C@@H]1[C@@H](O)[C@H](Oc2cncc(-c3ccc(Cl)nc3)c2)SC[C@H]1O [Example 30, 5-(6-Chloro-3-pyridinyl)-3-pyridinyl 5-thio-β-D-xylopyranoside]	97
O[C@@H]1[C@@H](O)[C@H](Oc2ccc(-c3cccnc3Cl)nc2)SC[C@H]1O [Example 40, 6-(2-Chloro-3-pyridinyl)-3-pyridinyl 5-thio-β-D-xylopyranoside]	96
O[C@@H]1[C@@H](O)[C@H](Oc2ccc(-c3cccs3)nc2)SC[C@H]1O [Example 108, 6-(2-Thienyl)-3-pyridinyl 5-thio-β-D-xylopyranoside]	95
O[C@@H]1[C@@H](O)[C@H](Oc2ccc(-c3ccncc3)nc2)SC[C@H]1O [Example 122, 6-(4-Pyridinyl)-3-pyridinyl 5-thio-β-D-xylopyranoside]	93
O[C@@H]1[C@@H](O)[C@H](Oc2ccnc(-c3ccncc3)c2)SC[C@H]1O [Example 130, 2-(4-Pyridinyl)-4-pyridinyl 5-thio-β-D-xylopyranoside]	91
Cc1oncc1-c1ccc(O[C@@H]2SC[C@@H](O)[C@H](O)[C@H]2O)cn1 [Example 140, 6-(5-Methyl-4-isoxazolyl)-3-pyridinyl 5-thio-β-D-xylopyranoside]	96
Cc1cncc(-c2ccc(O[C@@H]3SC[C@@H](O)[C@H](O)[C@H]3O)cn2)c1 [Example 142, 6-(5-Methyl-3-pyridinyl)-3-pyridinyl 5-thio-β-D-xylopyranoside]	97
Cn1cc(-c2ncc(O[C@@H]3SC[C@@H](O)[C@H](O)[C@H]3O)cc2F)cn1 [Example 224, 5-Fluoro-6-(1-methyl-1H-pyrazol-4-yl)-3-pyridinyl 5-thio-β-D-xylopyranoside]	99
Cc1noc(C)c1-c1ncc(O[C@@H]2SC[C@@H](O)[C@H](O)[C@H]2O)cc1F [Example 226, 6-(3,5-Dimethyl-4-isoxazolyl)-5-fluoro-3-pyridinyl 5-thio-β-D-xylopyranoside]	97
